Experimental data as given in patent publication US9797913B2, “Alzheimer's disease-specific alterations of the ERK1/ERK2 phosphorylation ratio-alzheimer's disease-specific molecular biomarkers (ADSMB)” (BLANCHETTE ROCKEFELLER NEUROSCIENCES INSTITUTE, priority 2005, dated 2017).
Entries after “also recorded” stand apart in the source; their conditions may differ.

Legend:
[1] = system: Erk1/Erk2 phosphorylation ratio in Aβ(1-42)-treated human fibroblasts; assay: Bryostatin reversal of the Aβ(1-42)-induced Alzheimer's phenotype (ADSMB) in control fibroblasts; format: cell-based; settings: AC cell lines, 1.0 μM Aβ(1-42) 24 hrs followed by 0.1 nM bryostatin 20 min
Protocol: Preparation of Aβ(1-42) solution: Initially 1 mg of Aβ(1-42) was dissolved in hexa-fluoroisopropanol (Sigma, St. Louis, Mo.) at a concentration of 3 mM and separated into aliquots in sterile microcentrifuge tubes. Hexa-fluoroisopropanol was removed under vacuum and lyophilized. The Aβ(1-42) films were stored at −20° C. under dry conditions until use. 5 mM Aβ(1-42) stock solution was prepared from the stored Aβ(1-42) in DMSO just before the experiment. 1.0 μM stock solution was prepared in DMEM medium (supplemented with 10% serum and penicillin/streptomycin) by dissolving Aβ(1-42) from a DSMO stock solution. […] Total Erk1, Erk2 and the phosphorylated forms of Erk1 and Erk2 (p-Erk1, p-Erk2) were determined using specific antibodies: anti-regular Erk1/2 and anti-phospho ERK1/2. […]
Signals of the Western blot protein bands were scanned with a Fuji LAS-1000 Plus scanner. The intensity of Erk1, Erk2, p-Erk1 and p-Erk2 were measured from scanned protein bands by a specially designed software developed by Dr. Nelson in our Institute (Blanchette Rockefeller Neurosciences Institute, Rockville, Md.). The intensity was measured by strip densitometry. The protein bands were selected by strip and each pixel density was calculated after background subtraction by the software. The ratios of p-Erk1/p-Erk2 were calculated from sample (BK+) and control (BK−) respectively. […]

PKC = settings: human fibroblasts; cited from earlier work
[2] = system: Aβ(1-42) levels in the brains; settings: transgenic mice with human AD genes; cited from earlier work
AD-transgenic mice = settings: chronic exposure; cited from earlier work
[3] = system: Erk1/Erk2 phosphorylation ratio in non-AD control (AC) cells; assay: Aβ(1-42) induction of the Alzheimer's phenotype (ADSMB, bradykinin-induced p-Erk1/p-Erk2 ratio) in control fibroblasts; format: cell-based, human; settings: for ADSMB: then 10 nM bradykinin 10 min
Protocol: Preparation of Aβ(1-42) solution: Initially 1 mg of Aβ(1-42) was dissolved in hexa-fluoroisopropanol (Sigma, St. Louis, Mo.) at a concentration of 3 mM and separated into aliquots in sterile microcentrifuge tubes. Hexa-fluoroisopropanol was removed under vacuum and lyophilized. The Aβ(1-42) films were stored at −20° C. under dry conditions until use. 5 mM Aβ(1-42) stock solution was prepared from the stored Aβ(1-42) in DMSO just before the experiment. 1.0 μM stock solution was prepared in DMEM medium (supplemented with 10% serum and penicillin/streptomycin) by dissolving Aβ(1-42) from a DSMO stock solution. DMEM medium containing 1.0 μM Aβ(1-42) was added to non-AD control (AC) cells at 90-100% confluence stage in 25 mL cultured flask and kept at cell culture incubator (at 37° C. with 5% CO2) for 24 hrs. Cells were ‘starved’ in serum free medium (DMEM) for 16 hours. 10 nM bradykinin (in DMSO) solution was prepared in DMEM medium with 10% serum. 7 mL of 10 nM BK solution were added to the 25 mL cultured flask and incubated at 37° C. for 10 min. For the controls, the same amount of DMSO was added in DMEM medium with 10% serum. 7 mL of this medium with DMSO (<0.01%) were added to the 25 mL cultured flask and incubated at 37° C. for 10 min. After washing four times with cold (4° C.) 1×PBS, flasks were kept in a dry ice/ethanol mixture for 15 min. Flasks were removed from the dry ice/ethanol mixture and then 100 μL of lysis buffer (10 mM Tris, pH 7.4, 150 mM NaCl, 1 mM EDTA, 1 mM EGTA, 0.5% NP-40, 1% Triton X-100, 1% protease inhibitor cocktail, 1% ser/thr/tyrosine phosphatase inhibitor cocktails) was added into each flask. Flasks were kept on an end-to end shaker in a cold room (4° C.) for 30 min and cells were collected from each flask with a cell scraper. Cells were sonicated and then centrifuged at 14000 rpm for 15 min, and the supernatant was used for Western blotting after total protein assay. Total Erk1, Erk2 and the phosphorylated forms of Erk1 and Erk2 (p-Erk1, p-Erk2) were determined using specific antibodies: anti-regular Erk1/2 and anti-phospho ERK1/2. At least three bradykinin treated flasks (BK+) and correspondingly three control flasks (BK−) were included for each cell line to minimize errors in measurement.
Signals of the Western blot protein bands were scanned with a Fuji LAS-1000 Plus scanner. The intensity of Erk1, Erk2, p-Erk1 and p-Erk2 were measured from scanned protein bands by a specially designed software developed by Dr. Nelson in our Institute (Blanchette Rockefeller Neurosciences Institute, Rockville, Md.). The intensity was measured by strip densitometry. The protein bands were selected by strip and each pixel density was calculated after background subtraction by the software. The ratios of p-Erk1/p-Erk2 were calculated from sample (BK+) and control (BK−) respectively. The following formula was used to distinguish between AD and non-AD cases: ADSMB=[p-Erk1/p-Erk2]^BK+−[p-Erk1/p-Erk2]^BK− ADSMB=Alzheimer's Disease-Specific Molecular Biomarker

| Compound | ADSMB after Aβ(1-42) then bryostatin treatment (in words) [1] | ADSMB after Aβ(1-42) then bryostatin treatment (in words) ([1]; listed as bryostatin) | PKC activation (PKC) | Aβ(1-42) levels in the brains [2] | survival (AD-transgenic mice) | ADSMB Average ± SE ([3]; average of AC cell lines, 1.0 μM Aβ(1-42) 24 hrs, P < 0.001 vs control) | ADSMB ([3]; cell line AG06959, 1.0 μM Aβ(1-42) 24 hrs) | ADSMB ([3]; cell line AG07732, 1.0 μM Aβ(1-42) 24 hrs) | ADSMB ([3]; cell line AG09977, 1.0 μM Aβ(1-42) 24 hrs) | ADSMB ([3]; cell line AG11363, 1.0 μM Aβ(1-42) 24 hrs) | ADSMB after Aβ(1-42) treatment (in words) ([3]; control (non-AD) cell lines, 1.0 μM Aβ(1-42), 24 hours) |
| --- | --- | --- | --- | --- | --- | --- | --- | --- | --- | --- | --- |
| CCC/C=C/C=C/C(=O)O[C@H]1/C(=C/C(=O)OC)C[C@H]2C[C@H]([C@@H](C)O)OC(=O)C[C@H](O)C[C@@H]3C[C@H](OC(C)=O)C(C)(C)[C@](O)(C[C@@H]4C/C(=C/C(=O)OC)C[C@H](/C=C/C(C)(C)[C@]1(O)O2)O4)O3 [Bryostatin] | entirely reversed | small and negative | enhance PKC activation | reduce Aβ(1-42) levels | greatly increased survival |  |  |  |  |  |  |
| Beta amyloid (1-42) [Aβ] |  |  |  |  |  | 0.13 ± 0.01 | 0.13 | 0.12 | 0.13 | 0.16 | abnormal positively valued ADSMB phenotype; also recorded: higher and positive |
